Data taken from patent US4826814A, “Tripeptide derivatives” (Dainippon Pharmaceutical Co., Ltd., priority 1986, dated 1989).
Starred links: 1 amine or outer side, 2 acyl side, 3 side chain; linkers in the order of their positions; H or OH if unused. Non-standard residues stand in square brackets, D forms with d. Residues, ends and D or L forms follow the SMILES beside them. *: point of attachment. d(γGlu) = O=C(O)[C@@H](CCC(=O)[*:2])N[*:1]; Oic = O=C(O)[C@@H]1C[C@@H]2CCCC[C@@H]2N1; Orn = NCCC[C@H](N)C(=O)O; Cbz = O=C(OCc1ccccc1)*; Bz = O=C(c1ccccc1)*

Target: T1, ACE preparation (rabbit lung) (Oryctolagus cuniculus, UniProt P12822)
T1 construct: an ACE preparation (rabbit lung); from tissue; host or cells: rabbit lung
T1 sequence (P12822 34-1310): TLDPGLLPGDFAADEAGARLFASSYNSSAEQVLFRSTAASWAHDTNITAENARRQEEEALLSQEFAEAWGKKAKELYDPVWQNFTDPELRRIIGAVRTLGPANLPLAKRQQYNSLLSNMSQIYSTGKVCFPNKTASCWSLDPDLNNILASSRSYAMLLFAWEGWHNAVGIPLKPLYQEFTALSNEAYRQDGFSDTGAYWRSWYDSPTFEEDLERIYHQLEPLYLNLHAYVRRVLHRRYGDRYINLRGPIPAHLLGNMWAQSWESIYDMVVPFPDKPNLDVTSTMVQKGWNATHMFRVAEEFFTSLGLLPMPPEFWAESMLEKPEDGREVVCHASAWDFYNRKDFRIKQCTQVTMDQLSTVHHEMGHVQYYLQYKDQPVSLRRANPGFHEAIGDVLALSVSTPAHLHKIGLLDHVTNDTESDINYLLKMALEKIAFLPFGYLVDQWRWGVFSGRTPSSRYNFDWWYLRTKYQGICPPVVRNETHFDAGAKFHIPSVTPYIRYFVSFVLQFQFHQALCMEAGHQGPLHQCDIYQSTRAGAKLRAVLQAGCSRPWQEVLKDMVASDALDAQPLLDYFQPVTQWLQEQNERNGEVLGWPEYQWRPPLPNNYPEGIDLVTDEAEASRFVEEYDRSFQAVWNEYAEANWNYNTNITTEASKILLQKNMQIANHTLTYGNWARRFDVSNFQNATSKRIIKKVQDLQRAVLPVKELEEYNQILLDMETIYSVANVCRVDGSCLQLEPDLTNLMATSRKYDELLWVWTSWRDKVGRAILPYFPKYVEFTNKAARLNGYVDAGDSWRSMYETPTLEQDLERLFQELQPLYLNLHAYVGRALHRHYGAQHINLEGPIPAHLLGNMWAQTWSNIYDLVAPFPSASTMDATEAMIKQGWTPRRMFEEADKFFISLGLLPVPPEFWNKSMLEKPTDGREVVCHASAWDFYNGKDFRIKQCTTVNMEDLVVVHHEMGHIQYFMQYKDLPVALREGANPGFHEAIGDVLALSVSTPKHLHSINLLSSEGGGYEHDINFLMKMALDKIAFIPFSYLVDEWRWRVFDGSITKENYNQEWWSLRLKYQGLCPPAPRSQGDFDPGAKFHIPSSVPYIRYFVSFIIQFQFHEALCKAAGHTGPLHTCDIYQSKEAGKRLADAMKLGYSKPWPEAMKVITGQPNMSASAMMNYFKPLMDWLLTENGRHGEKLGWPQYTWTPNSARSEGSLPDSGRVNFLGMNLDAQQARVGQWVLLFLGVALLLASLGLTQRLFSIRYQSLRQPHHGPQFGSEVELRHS
Assay: In vitro ACE inhibitory activity (hippuryl-L-histidyl-L-leucine substrate)
Assay type: biochemical
Conditions: 37° C., 30 minutes, pH 8.3
Description: The assay medium contained an ACE preparation (rabbit lung), synthetic substrate (hippuryl-L-histidyl-L-leucine 5 mM), NaCl (300 mM) and phosphate buffer (100 mM, pH 8.3). It was mixed to a final volume of 0.300 ml and incubated at 37° C. for 30 minutes in the presence or absence of test compounds. After the reaction was terminated by adding 300 μl of 1N HCl, hippuric acid formed was extracted with 2 volume of ethyl acetate. After ethyl acetate was evaporated and distilled water was added, the hippuric acid was determined from its absorbance at 228 nm by spectrophotometer (Hitachi 100-41).
The degree of ACE inhibition was calculated from activities with and without test compounds. The IC50 value (molar concentration required for the 50% inhibition of ACE activity) was obtained from a dose-inhibition curve.

Compound | IC50 [nM]
NCCCC[C@H](NC(=O)OCc1ccccc1)C(=O)N[C@H](CCC(=O)N1c2ccccc2C[C@H]1C(=O)O)C(=O)O [Example 1, 1-(N^2 -Benzyloxycarbonyl-L-lysyl-gamma-D-glutamyl)indoline-2(S)-carboxylic acid] | 5.6
NCCCC[C@H](NC(=O)OCCc1ccccc1)C(=O)N[C@H](CCC(=O)N1c2ccccc2C[C@H]1C(=O)O)C(=O)O [Example 3, 1-(N^2 -Phenethyloxycarbonyl-L-lysyl-gamma-D-glutamyl)indoline-2(S)-carboxylic acid] | 13
NCCCC[C@H](NC(=O)OC1CCCCC1)C(=O)N[C@H](CCC(=O)N1c2ccccc2C[C@H]1C(=O)O)C(=O)O [Example 4, 1-(N^2 -Cyclohexyloxycarbonyl-L-lysyl-gamma-D-glutamyl)indoline-2(S)-carboxylic acid] | 8.4
NCCCC[C@H](NC(=O)c1ccco1)C(=O)N[C@H](CCC(=O)N1c2ccccc2C[C@H]1C(=O)O)C(=O)O [Example 8, 1-[N^2-(2-Furoyl)-L-lysyl-gamma-D-glutamyl]indoline-2(S)-carboxylic acid] | 23
NCCCC[C@H](NC(=O)[C@@H]1CCCN1)C(=O)N[C@H](CCC(=O)N1c2ccccc2C[C@H]1C(=O)O)C(=O)O [Example 9, 1-(L-prolyl-L-lysyl-gamma-D-glutamyl)indoline-2(S)-carboxylic acid] | 36
NCCCC[C@H](NC(=O)C=Cc1c[nH]cn1)C(=O)N[C@H](CCC(=O)N1c2ccccc2C[C@H]1C(=O)O)C(=O)O [Example 10, 1-{N^2-[3-(4-Imidazolyl)-propenoyl]-L-lysyl-gamma-D-glutamyl}indoline-2(S)-carboxylic acid] | 95
NCCC[C@H](NC(=O)OCc1ccccc1)C(=O)N[C@H](CCC(=O)N1[C@H](C(=O)O)C[C@@H]2CCCC[C@@H]21)C(=O)O [Example 14, (2S,3aS,7aS)-1-(N^2 -Benzyloxycarbonyl-L-ornithinyl-gamma-D-glutamyl)octahydro-1H-indole-2-carboxylic acid] (Cbz-[Orn]-[d(γGlu)]-[Oic]-OH) | 4.9
NCCCC[C@H](NC(=O)OCC1CCCCC1)C(=O)N[C@H](CCC(=O)N1c2ccccc2C[C@H]1C(=O)O)C(=O)O [Example 16, 1-(N^2 -Cyclohexylmethoxycarbonyl-L-lysyl-gamma-D-glutamyl)indoline-2(S)-carboxylic acid] | 13
NCCCC[C@H](NC(=O)[C@H]1CCCN1)C(=O)N[C@H](CCC(=O)N1c2ccccc2C[C@H]1C(=O)O)C(=O)O [Example 17, 1-(D-Prolyl-L-lysyl-gamma-D-glutamyl)indoline-2(S)-carboxylic acid] | 21
NCCCC[C@H](NC(=O)c1ccccn1)C(=O)N[C@H](CCC(=O)N1[C@H](C(=O)O)C[C@@H]2CCCC[C@@H]21)C(=O)O [Example 20, (2S,3aS,7aS)-1-[N^2-(Pyridine-2-carbonyl)-L-lysyl-gamma-D-glutamyl]octahydro-1H-indole-2-carboxylic acid] | 6.8
NCCCC[C@H](NC(=O)OCCc1ccccc1)C(=O)N[C@H](CCC(=O)N1[C@H](C(=O)O)C[C@@H]2CCCC[C@@H]21)C(=O)O [Example 26, (2S,3aS,7aS)-1-[N^2 -Phenethyloxycarbonyl-L-lysyl-gamma-D-glutamyl]octahydro-1H-indole-2-carboxylic acid] | 4.6
NCCCC[C@H](NC(=O)c1ccccc1)C(=O)N[C@H](CCC(=O)N1[C@H](C(=O)O)C[C@@H]2CCCC[C@@H]21)C(=O)O [Example 27, (2S,3aS,7aS)-1-(N^2 -Benzoyl-L-lysyl-gamma-D-glutamyl)octahydro-1H-indole-2-carboxylic acid] (Bz-Lys-[d(γGlu)]-[Oic]-OH) | 5.4
COc1ccc(CCOC(=O)N[C@@H](CCCCN)C(=O)N[C@H](CCC(=O)N2c3ccccc3C[C@H]2C(=O)O)C(=O)O)cc1 [Example 28, 1-[N^2-(4-Methoxyphenylethoxycarbonyl)-L-lysyl-gamma-D-glutamyl]indoline-2(S)-carboxylic acid] | 11
NCCCC[C@H](NC(=O)OC1CCCCC1)C(=O)N[C@H](CCC(=O)N1[C@H](C(=O)O)C[C@@H]2CCCC[C@@H]21)C(=O)O [Example 31, (2S,3aS,7aS)-1-(N^2 -Cyclohexyloxycarbonyl-L-lysyl-gamma-D-glutamyl)octahydro-1H-indole-2-carboxylic acid] | 5
NCCCC[C@H](NC(=O)OC1CCC1)C(=O)N[C@H](CCC(=O)N1[C@H](C(=O)O)C[C@@H]2CCCC[C@@H]21)C(=O)O [Example 32, (2S,3aS,7aS)-1-[N^2-(Cyclobutyloxycarbonyl)-L-lysyl-gamma-D-glutamyl]octahydro-1H-indole-2-carboxylic acid] | 4.6
NCCCC[C@H](NC(=O)OC1CCC1)C(=O)N[C@H](CCC(=O)N1c2ccccc2C[C@H]1C(=O)O)C(=O)O [Example 33, 1-(N^2 -Cyclobutyloxycarbonyl-L-lysyl-gamma-D-glutamyl)indoline-2(S)-carboxylic acid] | 14
NCCCC[C@H](NC(=O)OCCC1CCCCC1)C(=O)N[C@H](CCC(=O)N1c2ccccc2C[C@H]1C(=O)O)C(=O)O [Example 34, 1-(N^2 -Cyclohexylethoxycarbonyl-L-lysyl-gamma-D-glutamyl)indoline-2(S)-carboxylic acid] | 8
NCCCC[C@H](NC(=O)c1cccnc1)C(=O)N[C@H](CCC(=O)N1c2ccccc2C[C@H]1C(=O)O)C(=O)O [Example 35, 1-(N^2 -Nicotinoyl-L-lysyl-gamma-D-glutamyl)indoline-2(S)-carboxylic acid] | 11
NCCCC[C@H](NC(=O)C1CCC1)C(=O)N[C@H](CCC(=O)N1c2ccccc2C[C@H]1C(=O)O)C(=O)O [Example 36, 1-(N^2 -Cyclobutanecarbonyl-L-lysyl-gamma-D-glutamyl)-indoline-2(S)-carboxylic acid] | 22
NCCCC[C@H](NC(=O)OC1CCCC1)C(=O)N[C@H](CCC(=O)N1c2ccccc2C[C@H]1C(=O)O)C(=O)O [Example 37, 1-(N^2 -Cyclopentyloxycarbonyl-L-lysyl-gamma-D-glutamyl)indoline-2(S)-carboxylic acid] | 5.1
NCCCC[C@H](NC(=O)c1ccccc1)C(=O)N[C@H](CCC(=O)N1c2ccccc2C[C@H]1C(=O)O)C(=O)O [Example 39, 1-(N^2 -Benzoyl-L-lysyl-gamma-D-glutamyl)indoline-2(S)-carboxylic acid] | 11
NCCCC[C@H](NC(=O)c1cccs1)C(=O)N[C@H](CCC(=O)N1[C@H](C(=O)O)C[C@@H]2CCCC[C@@H]21)C(=O)O [Example 52, (2S,3aS,7aS)-1-[N^2-(2-Thiophenecarbonyl)-L-lysyl-gamma-D-glutamyl]octahydro-1H-indole-2-carboxylic acid] | 4.5
NCCCC[C@H](NC(=O)c1cnc2ccccc2c1)C(=O)N[C@H](CCC(=O)N1[C@H](C(=O)O)C[C@@H]2CCCC[C@@H]21)C(=O)O [Example 53, (2S,3aS,7aS)-1-[N^2-(3-Quinolinecarbonyl)-L-lysyl-gamma-D-glutamyl]octahydro-1H-indole-2-carboxylic acid] | 4.6
NCCCC[C@H](NC(=O)c1cccnc1Cl)C(=O)N[C@H](CCC(=O)N1[C@H](C(=O)O)C[C@@H]2CCCC[C@@H]21)C(=O)O [Example 54, (2S,3aS,7aS)-1-[N^2-(2-Chloronicotinoyl)-L-lysyl-gamma-D-glutamyl]octahydro-1H-indole-2-carboxylic acid] | 5.9
NCCCC[C@H](NC(=O)c1ccc(Cl)cc1)C(=O)N[C@H](CCC(=O)N1[C@H](C(=O)O)C[C@@H]2CCCC[C@@H]21)C(=O)O [Example 55, (2S,3aS,7aS)-1-[N^2-(4-Chlorobenzoyl)-L-lysyl-gamma-D-glutamyl]octahydro-1H-indole-2-carboxylic acid] | 6.2
